US8329617B2, “Compositions and methods for synergistic manipulation of plant and insect defenses” (Plant Bioscience Limited, priority 2007, dated 2012)

Tests used:
esterase = conditions: topical application of 1 ul of 0.1% PBO
Procedure: The esterase activity of individuals from a clone of resistant Myzus persicae was measured at zero time, then at hourly intervals following in vivo topical application of 1 ul of 0.1% PBO. […] The assay would also be continued to determine the time taken for the esterase levels to return to normal.

Myzus persicae, US1L = test: Bioassay: M. persicae protein on four pepper plants treated with cis-jasmone and PBO (1, 5 or 10 adults per plant); format: in vivo; conditions: for Av. Total Insect Protein μg: Bioassay, M. persicae (US1L), average of weeks 1 to 3; for μg (Av) Total Protein (M. persicae): four pepper plants, 7 days
Procedure: In all bioassay experiments the control plants were sprayed with deionised water. Initially seven treatments were used (Table 1) to test all chemical variables. All treatments were applied hydraulically with a spray simulator after which the plants were separated according to treatment (with cis-jasmone controls being separated) and left for 2 hours prior to insect application.
Analysis of protein in each treatment was conducted using Bradford Reagent: the data were analysed using the computer programme ‘GraFit’ (Erithacus software, Berkeley). To calculate the calibration curve a single logarithmic curve was used with regression analysis taking the values of the treatment wells (averages of the three readings taken: technical replicates). […]
To investigate developmental/fecundity effects of cis-jasmone+/−PBO E on Myzus persicae when applied to sweet peppers, one adult was added to the plants. Aphids were brushed from all plants and each leaf checked individually to ensure none remained. The aphid mass for each treatment was assessed for total protein (total from all four plants in the treatment) using Bradford reagent. The amount of aphid protein present on the plants 7 days after treatment was measured.
(§1) Myzus persicae was applied to sweet peppers at the rate of five adults were added per plant. Aphids were brushed from all plants and each leaf checked individually to ensure none remained. The aphid mass for each treatment was assessed for total protein (total from all four plants in the treatment) using Bradford reagent. The amount of aphid protein present on the plants 7 days after treatment was measured (for further information see Example 3).
as §1, with “persicae were” for “persicae was”, “of ten” for “of five”, “adults” for “adults were added”

B. tabaci = B. tabaci pupae protein on cotton plants treated with PBO and/or microencapsulated cis-jasmone; format: in vivo, Bemisia tabaci; conditions: for Protein WF (Av): five cotton plants per treatment, 5 adult female whiteflies per plant, ~16 days
Procedure: A new method for the investigation of the development of whitefly to the pupal stage on tomatoes and cotton was used. […] These were checked for protein after ˜16 days using Bradford reagent.
Adults were added to the plant 2 h after treatment, and removed after 24 h. The eggs laid were then left for 16-18 days until they reached the pupal stage. The total pupal protein on the plant was tested using the Bradford reagent.

## CCCCOCCOCCOCc1cc2c(cc1CCC)OCO2 [PBO, 2-(2-butoxyethoxy)ethyl 6-propylpiperonyl ether]
esterase; individual cotton bollworms
  time delay for esterase inhibition: 5 h
esterase; individual whiteflies
  optimal time delay for esterase inhibition: 10 h
Myzus persicae, US1L; 1 adult/plant
  Av. Total Insect Protein μg: 10.710 µg
Myzus persicae, US1L; 5 adults/plant
  Av. Total Insect Protein μg: 21.500 µg
Myzus persicae, US1L; 10 adults/plant
  Av. Total Insect Protein μg: 35.200 µg
Myzus persicae, US1L; M. persicae on pepper, five adults per plant
  effect of addition of PBO to cis-jasmone on reduction of insect protein (in words): potentiates the effect of cis-jasmone
Myzus persicae, US1L; M. persicae on pepper, small scale assays, 10, 5 or 1 adult aphid per plant
  reduction in total aphid protein (in words): no significant reduction
Myzus persicae, US1L; five adult apterous aphids per plant, week 1
  μg (Av) Total Protein (M. persicae): 23.60 µg
Myzus persicae, US1L; five adult apterous aphids per plant, week 2
  μg (Av) Total Protein (M. persicae): 17.29 µg
Myzus persicae, US1L; five adult apterous aphids per plant, week 3
  μg (Av) Total Protein (M. persicae): 23.60 µg
Myzus persicae, US1L; one adult apterous aphid per plant, week 1
  μg (Av) Total Protein (M. persicae): 13.64 µg
Myzus persicae, US1L; one adult apterous aphid per plant, week 2
  μg (Av) Total Protein (M. persicae): 8.50 µg
Myzus persicae, US1L; one adult apterous aphid per plant, week 3
  μg (Av) Total Protein (M. persicae): 10.01 µg
Myzus persicae, US1L; ten adult apterous aphids per plant, week 1
  μg (Av) Total Protein (M. persicae): 38.91 µg
Myzus persicae, US1L; ten adult apterous aphids per plant, week 2
  μg (Av) Total Protein (M. persicae): 33.2 µg
Myzus persicae, US1L; ten adult apterous aphids per plant, week 3
  μg (Av) Total Protein (M. persicae): 33.5 µg
B. tabaci; B. tabaci on cotton
  effect of addition of PBO to microencapsulated cis-jasmone (in words): potentiates the effect of this new microencapsulated cis-jasmone
B. tabaci; week 1
  Protein WF (Av): 0.167 µg
B. tabaci; week 2
  Protein WF (Av): 0.16 µg
B. tabaci; week 3
  Protein WF (Av): 0.17 µg
